These compounds were tested against 11-beta-hydroxysteroid dehydrogenase 1 (Homo sapiens, UniProt P28845) (assay: Inhibition of human 11beta HSD1 by SPA assay). Details: not given.
11-beta-hydroxysteroid dehydrogenase 1 (Homo sapiens, UniProt P28845), sequence (P28845 whole entry): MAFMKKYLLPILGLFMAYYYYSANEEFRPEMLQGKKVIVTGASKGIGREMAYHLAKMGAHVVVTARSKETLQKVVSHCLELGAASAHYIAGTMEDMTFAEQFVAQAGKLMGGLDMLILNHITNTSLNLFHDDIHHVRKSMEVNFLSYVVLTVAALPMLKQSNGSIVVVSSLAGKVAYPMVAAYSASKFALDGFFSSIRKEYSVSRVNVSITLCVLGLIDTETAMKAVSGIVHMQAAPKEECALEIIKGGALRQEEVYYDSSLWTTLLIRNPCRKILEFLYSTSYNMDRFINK

SMILES | IC50 [nM]
Cn1c(-c2ccc(-c3cccc(S(C)(=O)=O)c3)cc2Cl)nnc1C1(c2ccc(Cl)cc2)CCC1 | 0.98
CCS(=O)(=O)c1ccc(-c2ccc(-c3nnc(C4(c5ccc(Cl)cc5)CCC4)n3C)c(Cl)c2)cc1 | 2.1
Cn1c(-c2ccc(-n3ccnc3C(F)(F)F)cc2Cl)nnc1C1(c2ccc(Cl)cc2)CCC1 | 0.98
Cc1nccn1-c1ccc(-c2nnc(C3(c4ccc(Cl)cc4)CCC3)n2C)c(Cl)c1 | 2.6
CCS(=O)(=O)c1cccc(-c2ccc(-c3nnc(C4(c5ccc(Cl)cc5)CCC4)n3C)c(Cl)c2)c1 | 0.98
Cn1c(-c2ccc(-c3ccccc3)cc2Cl)nnc1C1(c2ccc(Cl)cc2)CCC1 | 1
CCS(=O)(=O)c1ccccc1-c1ccc(-c2nnc(C3(c4ccc(Cl)cc4)CCC3)n2C)c(Cl)c1 | 0.98

These compounds were tested against 11-beta-hydroxysteroid dehydrogenase 1 (Mus musculus, UniProt P50172) (assay: Inhibition of mouse 11beta HSD1 by SPA assay). Details: not given.
11-beta-hydroxysteroid dehydrogenase 1 (Mus musculus, UniProt P50172), sequence (P50172 whole entry): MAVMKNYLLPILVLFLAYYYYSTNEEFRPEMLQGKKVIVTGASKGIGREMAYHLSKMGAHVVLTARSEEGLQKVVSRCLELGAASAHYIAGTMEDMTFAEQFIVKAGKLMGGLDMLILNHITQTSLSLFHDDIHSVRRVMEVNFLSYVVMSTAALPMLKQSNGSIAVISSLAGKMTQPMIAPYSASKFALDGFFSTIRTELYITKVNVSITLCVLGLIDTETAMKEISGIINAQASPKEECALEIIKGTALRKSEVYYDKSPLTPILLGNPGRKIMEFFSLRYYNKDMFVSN

SMILES | IC50 [nM]
Cn1c(-c2ccc(-c3cccc(S(C)(=O)=O)c3)cc2Cl)nnc1C1(c2ccc(Cl)cc2)CCC1 | 0.98
CCS(=O)(=O)c1ccc(-c2ccc(-c3nnc(C4(c5ccc(Cl)cc5)CCC4)n3C)c(Cl)c2)cc1 | 0.98
Cn1c(-c2ccc(-n3ccnc3C(F)(F)F)cc2Cl)nnc1C1(c2ccc(Cl)cc2)CCC1 | 0.96
Cc1nccn1-c1ccc(-c2nnc(C3(c4ccc(Cl)cc4)CCC3)n2C)c(Cl)c1 | 9.6
CCS(=O)(=O)c1cccc(-c2ccc(-c3nnc(C4(c5ccc(Cl)cc5)CCC4)n3C)c(Cl)c2)c1 | 0.98
Cn1c(-c2ccc(-c3ccccc3)cc2Cl)nnc1C1(c2ccc(Cl)cc2)CCC1 | 1.4
CCS(=O)(=O)c1ccccc1-c1ccc(-c2nnc(C3(c4ccc(Cl)cc4)CCC3)n2C)c(Cl)c1 | 1.2

The compounds below were run against T1, 11-beta-hydroxysteroid dehydrogenase type 2 (Homo sapiens, UniProt P80365) (assay: Inhibition of human 11beta HSD2). Details: not given.
T1 sequence (P80365 whole entry): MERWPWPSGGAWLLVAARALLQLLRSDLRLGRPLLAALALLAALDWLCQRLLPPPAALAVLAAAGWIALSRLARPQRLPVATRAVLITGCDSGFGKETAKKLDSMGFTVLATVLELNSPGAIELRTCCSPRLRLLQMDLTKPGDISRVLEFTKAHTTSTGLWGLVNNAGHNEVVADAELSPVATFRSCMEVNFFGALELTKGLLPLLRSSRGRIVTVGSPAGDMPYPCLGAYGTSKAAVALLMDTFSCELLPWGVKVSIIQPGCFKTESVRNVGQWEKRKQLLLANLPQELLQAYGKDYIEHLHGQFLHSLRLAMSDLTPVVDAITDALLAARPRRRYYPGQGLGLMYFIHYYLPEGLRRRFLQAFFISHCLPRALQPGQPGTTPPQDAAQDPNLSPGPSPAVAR

SMILES | IC50 [nM]
Cn1c(-c2ccc(-c3cccc(S(C)(=O)=O)c3)cc2Cl)nnc1C1(c2ccc(Cl)cc2)CCC1 | > 4000
CCS(=O)(=O)c1ccccc1-c1ccc(-c2nnc(C3(c4ccc(Cl)cc4)CCC3)n2C)c(Cl)c1 | > 4000

What follows are compounds tested against T2, 11-beta-hydroxysteroid dehydrogenase type 2 (Mus musculus, UniProt P51661) (assay: Inhibition of mouse 11beta HSD2). Details: not given.
T2 sequence (P51661 whole entry): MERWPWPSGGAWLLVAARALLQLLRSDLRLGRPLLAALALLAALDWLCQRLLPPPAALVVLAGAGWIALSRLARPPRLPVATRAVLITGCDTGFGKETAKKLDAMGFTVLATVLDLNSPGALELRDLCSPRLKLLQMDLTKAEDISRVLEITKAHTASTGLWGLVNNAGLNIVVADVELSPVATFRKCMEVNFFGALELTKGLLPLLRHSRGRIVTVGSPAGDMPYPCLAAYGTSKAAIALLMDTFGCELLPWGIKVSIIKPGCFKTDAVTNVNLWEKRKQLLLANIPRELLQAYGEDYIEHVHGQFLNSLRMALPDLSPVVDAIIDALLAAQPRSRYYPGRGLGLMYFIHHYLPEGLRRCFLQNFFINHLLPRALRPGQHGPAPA

SMILES | IC50 [nM]
Cn1c(-c2ccc(-c3cccc(S(C)(=O)=O)c3)cc2Cl)nnc1C1(c2ccc(Cl)cc2)CCC1 | > 4000
CCS(=O)(=O)c1ccc(-c2ccc(-c3nnc(C4(c5ccc(Cl)cc5)CCC4)n3C)c(Cl)c2)cc1 | > 4000
Cn1c(-c2ccc(-n3ccnc3C(F)(F)F)cc2Cl)nnc1C1(c2ccc(Cl)cc2)CCC1 | > 4000
Cc1nccn1-c1ccc(-c2nnc(C3(c4ccc(Cl)cc4)CCC3)n2C)c(Cl)c1 | > 4000
CCS(=O)(=O)c1cccc(-c2ccc(-c3nnc(C4(c5ccc(Cl)cc5)CCC4)n3C)c(Cl)c2)c1 | > 4000
CCS(=O)(=O)c1ccccc1-c1ccc(-c2nnc(C3(c4ccc(Cl)cc4)CCC3)n2C)c(Cl)c1 | > 4000

The compounds below were run on Mus musculus (assay: Inhibition of [3H]cortisone to [3H]cortisol conversion in mouse at 10 mg/kg, po administered as single dose after 4 hrs). Details: not given.
Type: functional

SMILES | inhibition in vivo at 10 mg/kg [%]
Cn1c(-c2ccc(-c3cccc(S(C)(=O)=O)c3)cc2Cl)nnc1C1(c2ccc(Cl)cc2)CCC1 | 96
CCS(=O)(=O)c1ccc(-c2ccc(-c3nnc(C4(c5ccc(Cl)cc5)CCC4)n3C)c(Cl)c2)cc1 | 71
Cn1c(-c2ccc(-n3ccnc3C(F)(F)F)cc2Cl)nnc1C1(c2ccc(Cl)cc2)CCC1 | 58
CCS(=O)(=O)c1cccc(-c2ccc(-c3nnc(C4(c5ccc(Cl)cc5)CCC4)n3C)c(Cl)c2)c1 | 93
Cn1c(-c2ccc(-c3ccccc3)cc2Cl)nnc1C1(c2ccc(Cl)cc2)CCC1 | 99
CCS(=O)(=O)c1ccccc1-c1ccc(-c2nnc(C3(c4ccc(Cl)cc4)CCC3)n2C)c(Cl)c1 | 56

These compounds were tested on Mus musculus (assay: Inhibition of [3H]cortisone to [3H]cortisol conversion in mouse at 10 mg/kg, po administered as single dose after 16 hrs). Details: not given.
Type: functional

SMILES | inhibition in vivo at 10 mg/kg [%]
Cn1c(-c2ccc(-c3cccc(S(C)(=O)=O)c3)cc2Cl)nnc1C1(c2ccc(Cl)cc2)CCC1 | 36
CCS(=O)(=O)c1ccc(-c2ccc(-c3nnc(C4(c5ccc(Cl)cc5)CCC4)n3C)c(Cl)c2)cc1 | 16
Cn1c(-c2ccc(-n3ccnc3C(F)(F)F)cc2Cl)nnc1C1(c2ccc(Cl)cc2)CCC1 | 20
CCS(=O)(=O)c1cccc(-c2ccc(-c3nnc(C4(c5ccc(Cl)cc5)CCC4)n3C)c(Cl)c2)c1 | 29
Cn1c(-c2ccc(-c3ccccc3)cc2Cl)nnc1C1(c2ccc(Cl)cc2)CCC1 | 85
CCS(=O)(=O)c1ccccc1-c1ccc(-c2nnc(C3(c4ccc(Cl)cc4)CCC3)n2C)c(Cl)c1 | 6

The compounds below were run against T3, Nuclear receptor subfamily 1 group I member 2 (Homo sapiens, UniProt O75469) (assay: Agonist activity at human PXR). Details: not given.
T3 sequence (O75469 whole entry): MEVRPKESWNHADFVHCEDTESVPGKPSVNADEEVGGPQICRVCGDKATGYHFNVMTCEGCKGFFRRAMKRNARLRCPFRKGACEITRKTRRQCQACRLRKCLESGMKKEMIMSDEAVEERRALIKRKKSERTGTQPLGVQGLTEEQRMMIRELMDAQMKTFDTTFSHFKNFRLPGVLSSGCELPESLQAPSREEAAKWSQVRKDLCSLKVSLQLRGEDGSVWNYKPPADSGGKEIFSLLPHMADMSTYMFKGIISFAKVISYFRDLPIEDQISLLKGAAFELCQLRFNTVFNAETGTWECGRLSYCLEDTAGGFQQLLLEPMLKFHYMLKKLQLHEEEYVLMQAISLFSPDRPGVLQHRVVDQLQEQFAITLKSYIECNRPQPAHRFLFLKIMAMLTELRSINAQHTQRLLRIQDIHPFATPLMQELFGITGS
Type: functional

SMILES | EC50 [nM]
Cn1c(-c2ccc(-c3cccc(S(C)(=O)=O)c3)cc2Cl)nnc1C1(c2ccc(Cl)cc2)CCC1 | > 25000
CCS(=O)(=O)c1ccc(-c2ccc(-c3nnc(C4(c5ccc(Cl)cc5)CCC4)n3C)c(Cl)c2)cc1 | > 25000
Cn1c(-c2ccc(-n3ccnc3C(F)(F)F)cc2Cl)nnc1C1(c2ccc(Cl)cc2)CCC1 | 3200
Cc1nccn1-c1ccc(-c2nnc(C3(c4ccc(Cl)cc4)CCC3)n2C)c(Cl)c1 | > 25000
CCS(=O)(=O)c1cccc(-c2ccc(-c3nnc(C4(c5ccc(Cl)cc5)CCC4)n3C)c(Cl)c2)c1 | 25000
Cn1c(-c2ccc(-c3ccccc3)cc2Cl)nnc1C1(c2ccc(Cl)cc2)CCC1 | 1700
CCS(=O)(=O)c1ccccc1-c1ccc(-c2nnc(C3(c4ccc(Cl)cc4)CCC3)n2C)c(Cl)c1 | 700

Each compound was assayed against T3, Nuclear receptor subfamily 1 group I member 2 (assay: Agonist activity at human PXR at 10 uM). Details: not given.
Type: functional

SMILES | Activity [%]
Cn1c(-c2ccc(-c3cccc(S(C)(=O)=O)c3)cc2Cl)nnc1C1(c2ccc(Cl)cc2)CCC1 | -5
CCS(=O)(=O)c1ccc(-c2ccc(-c3nnc(C4(c5ccc(Cl)cc5)CCC4)n3C)c(Cl)c2)cc1 | -8
Cn1c(-c2ccc(-n3ccnc3C(F)(F)F)cc2Cl)nnc1C1(c2ccc(Cl)cc2)CCC1 | 24
Cc1nccn1-c1ccc(-c2nnc(C3(c4ccc(Cl)cc4)CCC3)n2C)c(Cl)c1 | 22
CCS(=O)(=O)c1cccc(-c2ccc(-c3nnc(C4(c5ccc(Cl)cc5)CCC4)n3C)c(Cl)c2)c1 | -31
CCS(=O)(=O)c1ccccc1-c1ccc(-c2nnc(C3(c4ccc(Cl)cc4)CCC3)n2C)c(Cl)c1 | 74

Each compound was assayed against T4, 11-beta-hydroxysteroid dehydrogenase type 2 (Homo sapiens) (UniProt P80365). Details: at 4 µM.
T4 sequence (whole entry): T1 sequence (P80365 whole entry)
Description: Inhibition of human 11beta HSD2 at 4 uM

SMILES | inhibition [%]
CCS(=O)(=O)c1ccc(-c2ccc(-c3nnc(C4(c5ccc(Cl)cc5)CCC4)n3C)c(Cl)c2)cc1 | 75
CCS(=O)(=O)c1cccc(-c2ccc(-c3nnc(C4(c5ccc(Cl)cc5)CCC4)n3C)c(Cl)c2)c1 | 59

From ChEMBL document CHEMBL1150311, “4-Methyl-5-phenyl triazoles as selective inhibitors of 11beta-hydroxysteroid dehydrogenase type I” (Bioorg Med Chem Lett, 2008)
